Measured values as given in paper PMC9481151, “Discovery of new symmetrical and asymmetrical nitrile-containing 1,4-dihydropyridine derivatives as dual kinases and P-glycoprotein inhibitors: synthesis, in vitro assays, and in silico studies” (Journal of Enzyme Inhibition and Medicinal Chemistry, 2022).

Key:
[1] = tested on: CCRF-CEM; experiment: NCI single dose (10 µM) SRB screen; assay type: cell-based, human; conditions: leukaemia, 48 h
[2] = tested on: HL-60(TB); experiment: NCI single dose (10 µM) SRB screen; assay type: cell-based, human; conditions: leukaemia, 48 h
[3] = tested on: K-562; experiment: NCI single dose (10 µM) SRB screen; assay type: cell-based, human; conditions: leukaemia, 48 h
[4] = tested on: MOLT-4; experiment: NCI single dose (10 µM) SRB screen; assay type: cell-based, human; conditions: leukaemia, 48 h
[5] = tested on: RPMI-8226; experiment: NCI single dose (10 µM) SRB screen; assay type: cell-based, human; conditions: leukaemia, 48 h
[6] = tested on: SR; experiment: NCI single dose (10 µM) SRB screen; assay type: cell-based, human; conditions: leukaemia, 48 h
[7] = tested on: A549/ATCC; experiment: NCI single dose (10 µM) SRB screen; assay type: cell-based, human; conditions: non-small cell lung cancer, 48 h
[8] = tested on: EKVX; experiment: NCI single dose (10 µM) SRB screen; assay type: cell-based, human; conditions: non-small cell lung cancer, 48 h
[9] = tested on: HOP-62; experiment: NCI single dose (10 µM) SRB screen; assay type: cell-based, human; conditions: non-small cell lung cancer, 48 h
[10] = tested on: HOP-92; experiment: NCI single dose (10 µM) SRB screen; assay type: cell-based, human; conditions: non-small cell lung cancer, 48 h
[11] = tested on: NCI-H226; experiment: NCI single dose (10 µM) SRB screen; assay type: cell-based, human; conditions: non-small cell lung cancer, 48 h
[12] = tested on: NCI-H23; experiment: NCI single dose (10 µM) SRB screen; assay type: cell-based, human; conditions: non-small cell lung cancer, 48 h
[13] = tested on: NCI-H322M; experiment: NCI single dose (10 µM) SRB screen; assay type: cell-based; conditions: non-small cell lung cancer, 48 h
[14] = tested on: NCI-H460; experiment: NCI single dose (10 µM) SRB screen; assay type: cell-based, human; conditions: non-small cell lung cancer, 48 h
[15] = tested on: NCI-H522; experiment: NCI single dose (10 µM) SRB screen; assay type: cell-based, human; conditions: non-small cell lung cancer, 48 h
[16] = tested on: COLO 205; experiment: NCI single dose (10 µM) SRB screen; assay type: cell-based, human; conditions: colon cancer, 48 h
[17] = tested on: HCC-2998; experiment: NCI single dose (10 µM) SRB screen; assay type: cell-based, human; conditions: colon cancer, 48 h
[18] = tested on: HCT-116; experiment: NCI single dose (10 µM) SRB screen; assay type: cell-based, human; conditions: colon cancer, 48 h
[19] = tested on: HCT-15; experiment: NCI single dose (10 µM) SRB screen; assay type: cell-based, human; conditions: colon cancer, 48 h
[20] = tested on: HT29; experiment: NCI single dose (10 µM) SRB screen; assay type: cell-based, human; conditions: colon cancer, 48 h
[21] = tested on: KM12; experiment: NCI single dose (10 µM) SRB screen; assay type: cell-based, human; conditions: colon cancer, 48 h
[22] = tested on: SW-620; experiment: NCI single dose (10 µM) SRB screen; assay type: cell-based, human; conditions: colon cancer, 48 h
[23] = tested on: SF-268; experiment: NCI single dose (10 µM) SRB screen; assay type: cell-based, human; conditions: CNS cancer, 48 h
[24] = tested on: SF-295; experiment: NCI single dose (10 µM) SRB screen; assay type: cell-based, human; conditions: CNS cancer, 48 h
[25] = tested on: SF-539; experiment: NCI single dose (10 µM) SRB screen; assay type: cell-based, human; conditions: CNS cancer, 48 h
[26] = tested on: SNB-19; experiment: NCI single dose (10 µM) SRB screen; assay type: cell-based, human; conditions: CNS cancer, 48 h
[27] = tested on: SNB-75; experiment: NCI single dose (10 µM) SRB screen; assay type: cell-based, human; conditions: CNS cancer, 48 h
[28] = tested on: U251; experiment: NCI single dose (10 µM) SRB screen; assay type: cell-based, human; conditions: CNS cancer, 48 h
[29] = tested on: LOX IMVI; experiment: NCI single dose (10 µM) SRB screen; assay type: cell-based, human; conditions: melanoma, 48 h
[30] = tested on: MALME-3M; experiment: NCI single dose (10 µM) SRB screen; assay type: cell-based, human; conditions: melanoma, 48 h
[31] = tested on: M14; experiment: NCI single dose (10 µM) SRB screen; assay type: cell-based, human; conditions: melanoma, 48 h
[32] = tested on: MDA-MB-435; experiment: NCI single dose (10 µM) SRB screen; assay type: cell-based, human; conditions: melanoma, 48 h
[33] = tested on: SK-MEL-2; experiment: NCI single dose (10 µM) SRB screen; assay type: cell-based, human; conditions: melanoma, 48 h
[34] = tested on: SK-MEL-28; experiment: NCI single dose (10 µM) SRB screen; assay type: cell-based, human; conditions: melanoma, 48 h
[35] = tested on: SK-MEL-5; experiment: NCI single dose (10 µM) SRB screen; assay type: cell-based, human; conditions: melanoma, 48 h
[36] = tested on: UACC-257; experiment: NCI single dose (10 µM) SRB screen; assay type: cell-based, human; conditions: melanoma, 48 h
[37] = tested on: UACC-62; experiment: NCI single dose (10 µM) SRB screen; assay type: cell-based, human; conditions: melanoma, 48 h
[38] = tested on: IGROV1; experiment: NCI single dose (10 µM) SRB screen; assay type: cell-based, human; conditions: ovarian cancer, 48 h
[39] = tested on: OVCAR-3; experiment: NCI single dose (10 µM) SRB screen; assay type: cell-based, human; conditions: ovarian cancer, 48 h
[40] = tested on: OVCAR-4; experiment: NCI single dose (10 µM) SRB screen; assay type: cell-based, human; conditions: ovarian cancer, 48 h
[41] = tested on: OVCAR-5; experiment: NCI single dose (10 µM) SRB screen; assay type: cell-based, human; conditions: ovarian cancer, 48 h
[42] = tested on: OVCAR-8; experiment: NCI single dose (10 µM) SRB screen; assay type: cell-based, human; conditions: ovarian cancer, 48 h
[43] = tested on: NCI/ADR-RES; experiment: NCI single dose (10 µM) SRB screen; assay type: cell-based, human; conditions: ovarian cancer, 48 h
[44] = tested on: SK-OV-3; experiment: NCI single dose (10 µM) SRB screen; assay type: cell-based, human; conditions: ovarian cancer, 48 h
[45] = tested on: 786-0; experiment: NCI single dose (10 µM) SRB screen; assay type: cell-based, human; conditions: renal cancer, 48 h
[46] = tested on: A498; experiment: NCI single dose (10 µM) SRB screen; assay type: cell-based, human; conditions: renal cancer, 48 h
[47] = tested on: ACHN; experiment: NCI single dose (10 µM) SRB screen; assay type: cell-based, human; conditions: renal cancer, 48 h
[48] = tested on: CAKI-1; experiment: NCI single dose (10 µM) SRB screen; assay type: cell-based, human; conditions: renal cancer, 48 h
[49] = tested on: RXF 393; experiment: NCI single dose (10 µM) SRB screen; assay type: cell-based, human; conditions: renal cancer, 48 h
[50] = tested on: SN12C; experiment: NCI single dose (10 µM) SRB screen; assay type: cell-based, human; conditions: renal cancer, 48 h
[51] = tested on: TK-10; experiment: NCI single dose (10 µM) SRB screen; assay type: cell-based, human; conditions: renal cancer, 48 h
[52] = tested on: UO-31; experiment: NCI single dose (10 µM) SRB screen; assay type: cell-based, human; conditions: renal cancer, 48 h
[53] = tested on: PC-3; experiment: NCI single dose (10 µM) SRB screen; assay type: cell-based, human; conditions: prostate cancer, 48 h
[54] = tested on: DU-145; experiment: NCI single dose (10 µM) SRB screen; assay type: cell-based, human; conditions: prostate cancer, 48 h
[55] = tested on: MCF7; experiment: NCI single dose (10 µM) SRB screen; assay type: cell-based, human; conditions: breast cancer, 48 h
[56] = tested on: MDA-MB-231; experiment: NCI single dose (10 µM) SRB screen; assay type: cell-based, human; conditions: breast cancer, 48 h
[57] = tested on: HS578T; experiment: NCI single dose (10 µM) SRB screen; assay type: cell-based, human; conditions: breast cancer, 48 h
[58] = tested on: BT-549; experiment: NCI single dose (10 µM) SRB screen; assay type: cell-based, human; conditions: breast cancer, 48 h
[59] = tested on: T-47D; experiment: NCI single dose (10 µM) SRB screen; assay type: cell-based, human; conditions: breast cancer, 48 h
[60] = tested on: MDA-MB-468; experiment: NCI single dose (10 µM) SRB screen; assay type: cell-based, human; conditions: breast cancer, 48 h
[61] = tested on: NCI 60 cancer cell lines; experiment: NCI single dose (10 µM) SRB screen, mean over panel; assay type: cell-based, human; conditions: mean over 60 cell lines, 48 h
[62] = tested on: Staphylococcus aureus; experiment: Agar well diffusion method
[63] = tested on: Bacillus subtilis; experiment: Agar well diffusion method; conditions: relative to ciprofloxacin
[64] = tested on: Escherichia coli; experiment: Agar well diffusion method; conditions: relative to ciprofloxacin
[65] = tested on: Pseudomonas aeruginosa; experiment: Agar well diffusion method; conditions: relative to ciprofloxacin
[66] = tested on: Candida albicans; experiment: Agar well diffusion method; conditions: relative to clotrimazole
[67] = tested on: Aspergillus flavus; experiment: Agar well diffusion method

Substance: Diethyl 4-(3-cyanophenyl)-2,6-dipropyl-1,4-dihydropyridine-3,5-dicarboxylate [Compound 1h]
- GI% CCRF-CEM [1]: 24%
- GI% HL-60(TB) [2]: – (Only GI% ≥ 10 are shown)
- GI% K-562 [3]: 31%
- GI% MOLT-4 [4]: 38%
- GI% RPMI-8226 [5]: 34%
- GI% SR [6]: 32%
- GI% A549/ATCC [7]: 21%
- GI% EKVX [8]: 21%
- GI% HOP-62 [9]: – (Only GI% ≥ 10 are shown)
- GI% HOP-92 [10]: 29%
- GI% NCI-H226 [11]: 26%
- GI% NCI-H23 [12]: – (Only GI% ≥ 10 are shown)
- GI% NCI-H322M [13]: – (Only GI% ≥ 10 are shown)
- GI% NCI-H460 [14]: – (Only GI% ≥ 10 are shown)
- GI% NCI-H522 [15]: 20%
- GI% COLO 205 [16]: – (Only GI% ≥ 10 are shown)
- GI% HCC-2998 [17]: – (Only GI% ≥ 10 are shown)
- GI% HCT-116 [18]: 30%
- GI% HCT-15 [19]: 17%
- GI% HT29 [20]: 12%
- GI% KM12 [21]: – (Only GI% ≥ 10 are shown)
- GI% SW-620 [22]: – (Only GI% ≥ 10 are shown)
- GI% SF-268 [23]: 22%
- GI% SF-295 [24]: 11%
- GI% SF-539 [25]: 14%
- GI% SNB-19 [26]: – (Only GI% ≥ 10 are shown)
- GI% SNB-75 [27]: 42%
- GI% U251 [28]: – (Only GI% ≥ 10 are shown)
- GI% LOX IMVI [29]: – (Only GI% ≥ 10 are shown)
- GI% MALME-3M [30]: – (Only GI% ≥ 10 are shown)
- GI% M14 [31]: – (Only GI% ≥ 10 are shown)
- GI% MDA-MB-435 [32]: – (Only GI% ≥ 10 are shown)
- GI% SK-MEL-2 [33]: – (Only GI% ≥ 10 are shown)
- GI% SK-MEL-28 [34]: – (Only GI% ≥ 10 are shown)
- GI% SK-MEL-5 [35]: 31%
- GI% UACC-257 [36]: – (Only GI% ≥ 10 are shown)
- GI% UACC-62 [37]: 19%
- GI% IGROV1 [38]: 10%
- GI% OVCAR-3 [39]: – (Only GI% ≥ 10 are shown)
- GI% OVCAR-4 [40]: 32%
- GI% OVCAR-5 [41]: – (Only GI% ≥ 10 are shown)
- GI% OVCAR-8 [42]: – (Only GI% ≥ 10 are shown)
- GI% NCI/ADR-RES [43]: 18%
- GI% SK-OV-3 [44]: – (Only GI% ≥ 10 are shown)
- GI% 786-0 [45]: 16%
- GI% A498 [46]: 18%
- GI% ACHN [47]: – (Only GI% ≥ 10 are shown)
- GI% CAKI-1 [48]: 30%
- GI% RXF 393 [49]: 18%
- GI% SN12C [50]: – (Only GI% ≥ 10 are shown)
- GI% TK-10 [51]: – (Only GI% ≥ 10 are shown)
- GI% UO-31 [52]: 19%
- GI% PC-3 [53]: 47%
- GI% DU-145 [54]: – (Only GI% ≥ 10 are shown)
- GI% MCF7 [55]: 25%
- GI% MDA-MB-231 [56]: – (Only GI% ≥ 10 are shown)
- GI% HS578T [57]: 18%
- GI% BT-549 [58]: 14%
- GI% T-47D [59]: 32%
- GI% MDA-MB-468 [60]: 20%
- Mean GI% [61]: 14%
- Diameter of inhibition zone, S. aureus ([62]; 1 mg/mL in DMSO, 24 h, 36 °C): 7 mm
- % activity index, S. aureus ([62]; relative to ciprofloxacin): 29.2%
- % activity index, B. subtilis [63]: – (Values below 25 are of limited value and not shown as they refer either to inactive or non-diffusing compounds)
- % activity index, E. coli [64]: – (Values below 25 are of limited value and not shown as they refer either to inactive or non-diffusing compounds)
- % activity index, P. aeruginosa [65]: – (Values below 25 are of limited value and not shown as they refer either to inactive or non-diffusing compounds)
- % activity index, C. albicans [66]: – (Values below 25 are of limited value and not shown as they refer either to inactive or non-diffusing compounds)
- Diameter of inhibition zone, A. flavus ([67]; 1 mg/mL in DMSO, 24 h, 36 °C): 8 mm
- % activity index, A. flavus ([67]; relative to clotrimazole): 32%
